Experimental findings from patent US20240002470A1, “Method for separation and/or detection and/or in vitro quantification of infectious compounds in biological material” (priority 2020, published 2024) are described below.

The test system of assay [1] is HSV virus (Herpes Simplex virus). Kind of assay: Capture of HSV virus on magnetic microbeads coated with pepβ2GPI. The format is binding. How it is done: (§1) The pepβ2GPI were grafted onto the microbeads according to the supplier's recommendations. In summary, the microbeads are suspended in phosphate buffer at a pH of 6.0. The beads are then activated, for 15 minutes, in the presence of 1-ethyl-3-(3-Dimethylaminopropyl) carbodiimide and N-hydroxysuccinimide. After washing with HCl, 2 mM, the beads are suspended in a phosphate buffer at a pH of 7.5, containing the pepβ2GPI. The concentration of pepβ2GPI in this coupling buffer is 20 mg/L; the microbeads are incubated in the buffer with gentle and constant shaking at a temperature of 25° C. for 3 hours. The microbeads are then centrifuged at 1,500 rpm and the supernatant is removed; the centrifugation pellet is suspended in the same buffer as that used for the coupling of pepβ2GPI, which forms the suspension of microbeads coated with pepβ2GPI which we want to test.
(§2) One hundred microliters of viral culture supernatant to be studied are placed in an Eppendorf tube with 900 microliters of Tris buffer at a pH of 7.5 and 10 microliters of microbeads. The tubes are shaken horizontally to mix the microbeads well, and each tube is incubated at 37° C. or at room temperature (RT=22° C.) for 30 minutes. In each tube, the microbeads are then separated from the liquid phase by means of a magnet, placed externally against the wall of the tube, and the viral RNA is extracted. The beads are brought into contact with a viral lysis buffer, included in an RNA extraction kit: QIAamp RNA viral kit, sold by QIAGEN and the viral RNA is isolated according to the seller's recommendations.
(§3) The viruses tested are the HSV virus (Herpes Simplex virus) and the BVDV virus (Bovine viral Diarrhea Virus).
(§4) The same protocol as that described in example 1 was carried out.

The test system of assay [2] is BVDV virus (Bovine viral Diarrhea Virus). Kind of assay: Capture of BVDV virus on magnetic microbeads coated with pepβ2GPI. The format is binding. How it is done: as §1, §2, §3, §4

As for H-((SSLAFWK)2-K)2-K—NH2 [Peptide P11], the “Capture of HSV virus” value in assay [1] is 123%. Further, the “Capture of BVDV virus” value in assay [2] was 266%.
